Assay results published in patent publication US6524560B1, “Use of substituted vinyltetrahydronaphthalenes and vinyl-benzotetrahydropyrans as light protection agents” (BASF Aktiengesellschaft, priority 1999, dated 2003).

Columns and labels:
[1] = Standardized method for determining photostability (sun test); type: physicochemical; conditions: 5% strength by weight alcoholic solution on glass plate, 40° C.; for Photostability 30 min: 30 min irradiation; for Photostability 2 h: 2 h irradiation
Procedure: Standardized Method for Determining Photostability (Sun Test)
A 5% strength by weight alcoholic solution of the light protection agent to be tested is applied, using an Eppendorf pipette (20 μl), to the milled area of a small glass plate. Owing to the presence of the alcohol, the solution distributes uniformly on the roughened surface of the glass. The amount applied corresponds to the amount of light protection agent required to achieve an average sun protection factor in suncreams. In the test, four small glass plates are irradiated in each case. […] The small glass plates are cooled slightly during irradiation using a water cooling system located at the base of the sun test apparatus. The temperature inside the sun test apparatus is 40° C. during irradiation. After the samples have been irradiated, they are washed with ethanol in a dark 50 ml graduated flask and measured using a photometer. The blank samples are likewise applied to small glass plates and evaporated at room temperature for 30 minutes. Like the other samples, they are washed off with ethanol and diluted to 100 ml and measured.

[2] = UV absorption (absorption maximum and specific absorbance E 1/1); type: physicochemical; conditions: for λmax: UV absorption maximum; for E^1/1: specific absorbance at λmax
[3] = used alone or in combination with UV-B filters; cited from earlier work

Photostability 30 min [1] | Photostability 2 h [1] | λmax [2] [nm] | E^1/1 [2] | Compound | photochemical stability [3]
96% | 90% | 346 | 694 | CC(=C(C#N)C#N)c1ccc2c(c1)C(C)(C)CCC2 [Example 1] | –
95% | 83% | 336 | 700 | Cc1cc2c(cc1C=C(C#N)C#N)C(C)(C)CCC2(C)C [Example 4] | –
100/100% | 100/100% | – | – | CCOC(=O)C(=Cc1cc2c(cc1OC)C(C)(C)CCC2(C)C)C(=O)OCC [Example 8] | –
– | – | – | – | COc1ccc(C(=O)CC(=O)c2ccc(C(C)(C)C)cc2)cc1 [PARSOL 1789, 4-(1,1-dimethylethyl)-4′-methoxydibenzoylmethane] | does not have sufficient photochemical stability
100% | 99% | 294 | 411 | CCOC(=O)C(=Cc1ccc2c(c1)C(C)(C)CCC2(C)C)C(=O)OCC [Example 6] | –
99% | 95% | 294 | 594 | CCOC(=O)C(=Cc1cc2c(cc1C)C(C)(C)CCC2(C)C)C(=O)OCC [Example 7] | –
97% | 84% | 330 | 801 | CC(=O)C(=Cc1ccc2c(c1)C(C)(C)CCO2)C(C)=O [Example 3] | –
86% | 83% | 330 | 601 | CC(C)(C)C(=O)/C(C#N)=C/c1ccc2c(c1)C(C)(C)CCC2(C)C [Example 5] | –
100% | 95% | 320 | 616 | CCOC(=O)C(=Cc1ccc2c(c1)C(C)(C)CCO2)C(=O)OCC [Example 2] | –
